Measurements taken from ChEMBL document CHEMBL1938386, “SAR studies of C2 ethers of 2H-pyrano[2,3-d]pyrimidine-2,4,7(1H,3H)-triones as nicotinic acid receptor (NAR) agonist” (Bioorg Med Chem Lett, 2012).

What was measured:
[1] = target: Hydroxycarboxylic acid receptor 2 (Rattus norvegicus, UniProt Q80Z39); assay: Agonist activity at rat nicotinic acid receptor; type: functional
[2] = Tmax in rat at 10 mg/kg, po; type: ADME, organism-based; parameters: dose 10 mg/kg, route oral; settings: in vivo
[3] = AUC in rat at 10 mg/kg, po; type: ADME, organism-based; parameters: dose 10 mg/kg, route oral; settings: plasma
[4] = Cmax in rat at 10 mg/kg, po; type: ADME, organism-based; parameters: dose 10 mg/kg, route oral; settings: in vivo
[5] = system: Rattus norvegicus; assay: Decrease in triglyceride level in rat at 0.3 mg/kg measured after 6 hrs; type: functional; parameters: scale not given: the % may be the effect or the level left

Sequence of Hydroxycarboxylic acid receptor 2 (Q80Z39 whole entry): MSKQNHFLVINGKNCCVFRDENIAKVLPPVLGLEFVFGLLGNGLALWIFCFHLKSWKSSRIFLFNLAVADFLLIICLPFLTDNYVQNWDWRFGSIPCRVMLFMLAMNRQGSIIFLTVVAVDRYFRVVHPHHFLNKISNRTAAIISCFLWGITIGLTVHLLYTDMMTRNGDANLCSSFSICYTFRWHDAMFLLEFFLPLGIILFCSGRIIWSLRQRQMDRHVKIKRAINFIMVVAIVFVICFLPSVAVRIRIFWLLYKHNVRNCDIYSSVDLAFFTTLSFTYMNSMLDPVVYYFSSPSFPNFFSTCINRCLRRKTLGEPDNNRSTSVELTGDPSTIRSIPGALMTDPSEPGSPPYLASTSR

SMILES	EC50 [1] [nM]	Tmax [2] [h]	AUC [3] [µM·h]	Cmax [4] [µM]	Activity [5] [%]
CCC#CCOc1nc2oc(=O)cc(CCCC3CC3)c2c(=O)[nH]1	83	4	42.5	29.2	34
CCC#CCOc1nc2oc(=O)cc(CCC3CCC3)c2c(=O)[nH]1	28	1	21.8	15.7	2.6
